Data: BindingDB's records for patent US9108978 (Monash University, 2015)

Biological target: T1, Bifunctional ligase/repressor BirA (Staphylococcus aureus, UniProt A0A3A5LBF0)
T1 sequence (A0A3A5LBF0 whole entry): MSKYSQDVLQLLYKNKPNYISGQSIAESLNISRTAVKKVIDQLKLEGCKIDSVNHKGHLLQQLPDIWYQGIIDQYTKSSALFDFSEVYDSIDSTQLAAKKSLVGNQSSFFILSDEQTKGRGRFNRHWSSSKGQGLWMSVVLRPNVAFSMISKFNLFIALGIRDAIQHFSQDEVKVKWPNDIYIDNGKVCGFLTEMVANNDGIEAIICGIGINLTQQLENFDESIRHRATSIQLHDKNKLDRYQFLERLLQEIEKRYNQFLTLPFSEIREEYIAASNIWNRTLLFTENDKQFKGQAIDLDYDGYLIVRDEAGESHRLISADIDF
Assay: Enzyme Inhibition Assay
Conditions: pH 8; 37 °C
Experimental: The reaction was initiated by the addition of BPL to a final concentration of 4 nM. After 20 minutes at 37 C., 4 uL aliquots of the reaction were spotted onto Whatman paper pre-treated with biotin and trichloroacetic acid. The filters were washed twice with 10% v/v ice-cold trichloroacetic acid and once with ethanol before air-drying. Quantitation of protein-bound radiolabelled biotin was performed by liquid scintillation. One unit of enzyme activity was defined by the amount of BPL required to incorporate 1 nmol of biotin per minute. The IC50 value of each compound was determined.

SMILES: Nc1ncnc2c1ncn2[C@@H]1O[C@H](COP(=O)(O)OCCCCC[C@@H]2SC[C@@H]3NC(=O)N[C@@H]32)[C@@H](O)[C@H]1O [US9108978, 2.02]
- IC50: 203 nM
- Ki: 30 nM
